Literature values as cited in patent US20200397744A1, “COMPOSITIONS COMPRISING CO-CRYSTALS OF STILBENOIDS AND CANNABINOIDS” (priority 2018, published 2020).

What was measured:
cancer cell lines = cancer cell lines in vitro
[1] = in vivo

| Compound | decrease of plasma glucose levels (hyperglycemic rats) | cytotoxic activity (cancer cell lines) | bioavailability [1] |
| --- | --- | --- | --- |
| CN(C)C(=N)N=C(N)N [metformin] | 48% |  |  |
| COc1cc(/C=C/c2ccc(O)cc2)cc(OC)c1 [pterostilbene, trans-3,5-dimethoxy-4′-hydroxystilbene] |  | cytotoxic activity | poor bioavailability |
